Test results from the NIST ThermoML archive (doi:10.1016/j.jct.2005.03.027).

Legend:
[1] = 101 kPa, Liquid
[2] = refractive index (Na D-line) (dimensionless); conditions: 293.15 K; 101.33 kPa; Liquid; Standard Abbe refractometry
[3] = xn = mol fraction of the nth substance listed; conditions: 101 kPa, Liquid

BrC(Br)C(Br)Br [1,1,2,2-tetrabromoethane]
[1]
Conditions	mass density [kg/m3]	viscosity [mPa·s]
293.15 K	2963.2	10.94
303.15 K	2939.86	8.413

Conditions	refractive index
[2]	1.63535

BrC(Br)C(Br)Br [1,1,2,2-tetrabromoethane] + CCCCCCCCCCO
[3]
Conditions	mass density, 293.15 K [kg/m3]	mass density, 303.15 K [kg/m3]	viscosity, 293.15 K [mPa·s]	viscosity, 303.15 K [mPa·s]
x1 = 0.1023	968.19	960.09	14.09	9.449
x1 = 0.202	1114.37	1104.97	13.66	9.246
x1 = 0.3012	1272.36	1261.57	13.24	9.048
x1 = 0.4012	1446.62	1434.34	12.82	8.863
x1 = 0.5007	1636.66	1622.78	12.43	8.701
x1 = 0.6006	1847.04	1831.45	12.06	8.57
x1 = 0.7011	2081.74	2064.32	11.74	8.482
x1 = 0.8006	2340.68	2321.36	11.45	8.437
x1 = 0.9006	2632.79	2611.47	11.19	8.422
x1 = 1	2963.2	2939.86	10.94	8.413

BrC(Br)C(Br)Br [1,1,2,2-tetrabromoethane] + CCCCCCCCO
[3]
Conditions	mass density, 293.15 K [kg/m3]	mass density, 303.15 K [kg/m3]	viscosity, 293.15 K [mPa·s]	viscosity, 303.15 K [mPa·s]
x1 = 0.099	–	980.93	–	6.446
x1 = 0.101	989.26	–	9.28	–
x1 = 0.1999	–	1151.32	–	6.535
x1 = 0.2013	1161.15	–	9.347	–
x1 = 0.2997	1338.99	–	9.426	–
x1 = 0.3001	–	1327.63	–	6.646
x1 = 0.3994	1529.17	–	9.527	–
x1 = 0.3995	–	1516.19	–	6.774
x1 = 0.5002	1732.98	–	9.661	–
x1 = 0.5006	–	1718.29	–	6.947
x1 = 0.5987	–	1931.52	–	7.155
x1 = 0.6003	1947.95	–	9.831	–
x1 = 0.6993	–	2157.22	–	7.398
x1 = 0.6998	2175.4	–	10.04	–
x1 = 0.799	–	2399.36	–	7.708
x1 = 0.7998	2419.28	–	10.32	–
x1 = 0.8992	–	2662.77	–	8.065
x1 = 0.9011	2684.42	–	10.63	–
x1 = 1	2963.2	2939.86	10.94	8.413

BrC(Br)C(Br)Br [1,1,2,2-tetrabromoethane] + CCCCCCCO
[3]
Conditions	mass density, 293.15 K [kg/m3]	mass density, 303.15 K [kg/m3]	viscosity, 293.15 K [mPa·s]	viscosity, 303.15 K [mPa·s]
x1 = 0.099	1001.11	992.57	7.314	5.033
x1 = 0.1999	1189.38	1179.18	7.577	5.262
x1 = 0.3001	1383.2	1371.29	7.86	5.513
x1 = 0.3995	1582.25	1568.62	8.171	5.801
x1 = 0.5006	1792.24	1776.88	8.531	6.128
x1 = 0.5987	2003.6	1986.59	8.915	6.484
x1 = 0.6993	2229.07	2210.42	9.351	6.886
x1 = 0.799	2461.79	2441.56	9.836	7.336
x1 = 0.8992	2706	2684.21	10.38	7.862
x1 = 1	2963.2	2939.86	10.94	8.413

BrC(Br)C(Br)Br [1,1,2,2-tetrabromoethane] + CCCCCCO
[3]
Conditions	mass density, 293.15 K [kg/m3]	mass density, 303.15 K [kg/m3]	viscosity, 293.15 K [mPa·s]	viscosity, 303.15 K [mPa·s]
x1 = 0.1001	1021.6	1012.63	5.764	4.031
x1 = 0.2007	1227.75	1216.94	6.116	4.348
x1 = 0.3004	1434.26	1421.62	6.633	4.709
x1 = 0.4004	1643.89	1629.48	7.123	5.112
x1 = 0.5005	1856.54	1840.42	7.644	5.542
x1 = 0.6008	2072.22	2054.51	8.195	6.009
x1 = 0.6999	2288.24	2269.06	8.786	6.508
x1 = 0.8012	2512.37	2491.76	9.433	7.068
x1 = 0.9001	2734.51	2712.53	10.14	7.699
x1 = 1	2963.2	2939.86	10.94	8.413

BrC(Br)C(Br)Br [1,1,2,2-tetrabromoethane] + CCCCCO
[3]
Conditions	mass density, 293.15 K [kg/m3]	mass density, 303.15 K [kg/m3]	viscosity, 293.15 K [mPa·s]	viscosity, 303.15 K [mPa·s]
x1 = 0.1009	1048.36	1038.85	4.543	3.24
x1 = 0.2014	1276.63	1265.1	5.078	3.639
x1 = 0.3004	1497.47	1484.08	5.653	4.078
x1 = 0.4003	1716.5	1701.36	6.278	4.563
x1 = 0.5014	1934.64	1917.88	6.942	5.089
x1 = 0.6001	2144.16	2125.93	7.621	5.631
x1 = 0.7001	2353.22	2333.58	8.346	6.217
x1 = 0.7998	2558.61	2537.64	9.119	6.846
x1 = 0.8997	2761.73	2739.49	9.968	7.555
x1 = 1	2963.2	2939.86	10.94	8.413

CCCCCCCCCCO [decan-1-ol]
[1]
Conditions	mass density [kg/m3]	viscosity [mPa·s]
293.15 K	829.7	14.54
303.15 K	822.85	9.676

Conditions	refractive index
[2]	1.43706

CCCCCCCCCCO [decan-1-ol] + BrC(Br)C(Br)Br
[3], x2 = 0
Conditions	mass density [kg/m3]	viscosity [mPa·s]
293.15 K	829.7	14.54
303.15 K	822.85	9.676

CCCCCCCO [heptan-1-ol]
[1]
Conditions	mass density [kg/m3]	viscosity [mPa·s]
293.15 K	822.39	7.058
303.15 K	815.41	4.821

Conditions	refractive index
[2]	1.42397

CCCCCCCO [heptan-1-ol] + BrC(Br)C(Br)Br
[3], x2 = 0
Conditions	mass density [kg/m3]	viscosity [mPa·s]
293.15 K	822.39	7.058
303.15 K	815.41	4.821

CCCCCCO [hexan-1-ol]
[1]
Conditions	mass density [kg/m3]	viscosity [mPa·s]
293.15 K	818.92	5.37
303.15 K	811.73	3.744

Conditions	refractive index
[2]	1.41826

CCCCCCO [hexan-1-ol] + BrC(Br)C(Br)Br
[3], x2 = 0
Conditions	mass density [kg/m3]	viscosity [mPa·s]
293.15 K	818.92	5.37
303.15 K	811.73	3.744

CCCCCCCCO [octan-1-ol]
[1]
Conditions	mass density [kg/m3]	viscosity [mPa·s]
293.15 K	824.99	9.219
303.15 K	818.09	6.358

Conditions	refractive index
[2]	1.42958

CCCCCCCCO [octan-1-ol] + BrC(Br)C(Br)Br
[3], x2 = 0
Conditions	mass density [kg/m3]	viscosity [mPa·s]
293.15 K	824.99	9.219
303.15 K	818.09	6.358

CCCCCO [pentan-1-ol]
[1]
Conditions	mass density [kg/m3]	viscosity [mPa·s]
293.15 K	815.03	4.052
303.15 K	807.6	2.926

Conditions	refractive index
[2]	1.40995

CCCCCO [pentan-1-ol] + BrC(Br)C(Br)Br
[3], x2 = 0
Conditions	mass density [kg/m3]	viscosity [mPa·s]
293.15 K	815.03	4.052
303.15 K	807.6	2.926
